# Records with an inconclusive call do not appear. Activity calls are given as the source filed them. The rule behind the calls is not given here.
# Legend:
# [1] = test system: E. coli WT-RFP vs G2058 humanized-GFP mixed culture, fluorescence; test: growth inhibition of G2058-humanized E. coli versus wild-type, dose response, G2058 mutant GFP vs wild-type RFP, cherry-pick, OD600 (AID 977626)
# [2] = as above; conditions: E. coli WT-RFP vs G2058 humanized-GFP mixed culture, fluorescence; at 50 µM (top of the series)
# [3] = E. coli WT-RFP vs G2058 humanized-GFP mixed culture, measured here: total growth OD600
# [4] = measured here: G2058 humanized mutant strain GFP
SMILES,"AC50 [1, 3] [µM]","activity change, negative = inhibition [2]",AC50 [1] [µM],"AC50 [1, 4] [µM]"
COc1ccc(Cn2c(-c3ccc(Cl)cc3)c[n+]3ccccc23)cc1,45.6,-3.75 (inactive),–,–
COC(=O)c1c(NC(=O)CCC(=O)O)sc(Cc2ccccc2)c1C,3.27,–,9.22,3.03
Cc1ccc(C)c(NC(=O)CSc2nc3nc(-c4cccs4)cc(C(F)(F)F)c3c(=O)[nH]2)c1,8.26,-7.41 (inactive),–,9.81
CCN(CC)CCn1c2ccccc2c2nc3ccc([N+](=O)[O-])cc3cc21,4.58,26.7 (inactive),–,5.66
COc1ccc(NC(=O)c2ccc(-c3ccc([N+](=O)[O-])cc3)o2)cc1,5.22,–,2.63,> 100
COc1ccc(Nc2oc(-c3ccco3)nc2S(=O)(=O)c2ccc(F)cc2)cc1,–,–,3.67,–
O=C(O)c1cc([N+](=O)[O-])ccc1NCc1ccccc1,14.4,23.8 (inactive),–,38.9

# Source: PubChem BioAssay AID977626 (Broad Institute, 2014)
